For one test, the target named is T1, Wee1 kinase domain (Homo sapiens, UniProt P30291).
T1 construct: Wee1 kinase domain was purchased from Carna (catalog #05-177); purchased Carna 05-177
Briefly: Wee1 Kinase Biochemical Assay (ADP-Glo). The settings on record: Wee1 kinase domain, 15 uM ATP, ADP-Glo. In outline:
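Kinase domain (1 nM) incubated 4 h at 25 °C with 15 uM ATP and 2 ng/mL Poly(Lys,Tyr 4:1) in 40 mM Tris-HCl, 20 mM MgCl2, 0.1 mg/mL BSA, 2 mM DTT. ADP formation read by ADP-Glo luminescence; percent inhibition normalized to DMSO and saturating reference-inhibitor controls.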

The subject of test [1] is phosphorylation of Cdc2 Y15 (Wee1 substrate) in A427 cells. Kind of test: Phosphorylated Cdc2 MSD Electrochemiluminescence Assay. The class given is cell-based. The settings on record: Homo sapiens, A-427, pCDC2 MSD. In outline: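 A427 cells (RPMI 1640, 10% FBS) treated 20 h after plating with 3-fold serial compound dilutions, in duplicate, 37 °C, 5% CO2; total incubation 6 h. Lysate Cdc2 pY15 read by MSD electrochemiluminescence sandwich immunoassay; % remaining signal normalised to DMSO (high) and reference Wee1 inhibitor (low) controls.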

T1 sequence (P30291 299-569 limits assumed): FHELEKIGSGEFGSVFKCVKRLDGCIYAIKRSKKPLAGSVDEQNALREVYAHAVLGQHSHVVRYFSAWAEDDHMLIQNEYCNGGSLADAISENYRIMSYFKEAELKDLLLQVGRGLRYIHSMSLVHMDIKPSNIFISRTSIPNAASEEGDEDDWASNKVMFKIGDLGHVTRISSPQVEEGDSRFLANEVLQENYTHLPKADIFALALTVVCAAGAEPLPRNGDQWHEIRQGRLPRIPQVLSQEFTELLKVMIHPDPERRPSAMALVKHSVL

Consider `COc1ccc(Nc2ncc3c(n2)N(c2cccc(N=S(C)(C)=O)n2)[C@@H]2CC(C)(C)OC[C@]32C)nn1` (single isomer, unassigned) [Example 372], for which the IC50 was below 10 nM on Wee1 kinase domain and 100 to 1000 nM in test [1].
For `Cc1ncc(Nc2ncc3c(n2)N(c2cccc(N=S(C)(C)=O)n2)[C@@H]2CC(C)(C)OC[C@]32C)cn1` (single isomer, unassigned) [Example 373] the same measures were below 10 nM and 100 to 1000 nM.
With `CC1(C)C[C@H]2N(c3cccc(N=S(C)(C)=O)n3)c3nc(Nc4ccn(C(F)F)c(=O)c4)ncc3[C@@]2(C)CO1` (single isomer, unassigned) [Example 374], the IC50 was below 10 nM on Wee1 kinase domain and 100 to 1000 nM in test [1].
With `CC1(C)C[C@H]2N(c3cccc(N=S(C)(C)=O)n3)c3nc(Nc4ccn([C@@H]5CCOC5)c(=O)c4)ncc3[C@@]2(C)CO1` (single isomer, unassigned) [Example 375], the IC50 at Wee1 kinase domain was below 10 nM; in test [1], 100 to 1000 nM.
In the case of `CC1(C)C[C@H]2N(c3cccc(N=S(C)(C)=O)n3)c3nc(Nc4ccn([C@H]5CCOC5)c(=O)c4)ncc3[C@@]2(C)CO1` (single isomer, unassigned) [Example 376], the results for the IC50 (against Wee1 kinase domain; in test [1]) were below 10 nM and 100 to 1000 nM, respectively.
On to `CC1(C)C[C@H]2N(c3cccc(N=S(C)(C)=O)n3)c3nc(Nc4ccc(C(F)F)nn4)ncc3[C@@]2(C)CO1` (single isomer, unassigned) [Example 377], for which the figures for the IC50 (against Wee1 kinase domain; in test [1]) were below 10 nM and 1000 to 10000 nM, respectively.
On to `[2H]C([2H])([2H])n1ccc(Nc2ncc3c(n2)N(c2cccc(N=S(C)(C)=O)n2)[C@@H]2CC(C)(C)OC[C@]32C)cc1=O` (single isomer, unassigned) [Example 378], for which the IC50 was below 10 nM against Wee1 kinase domain and 100 to 1000 nM in test [1].
With `CC1(C)C[C@H]2N(c3cccc(N=S(C)(C)=O)n3)c3nc(Nc4ccn5ccnc5c4)ncc3[C@@]2(C)CO1` (single isomer, unassigned) [Example 379], the results for the concentration for half-maximal inhibition (IC50) (at Wee1 kinase domain; in test [1]) were below 10 nM and 100 to 1000 nM, respectively.
`CC1(C)C[C@H]2N(c3cccc(N=S(C)(C)=O)n3)c3nc(Nc4ccn(C5CC5)c(=O)c4)ncc3[C@@]2(C)CO1` (single isomer, unassigned) [Example 380]: the IC50 on Wee1 kinase domain is below 10 nM; in test [1], 100 to 1000 nM.
With `CNCc1cccc(N2c3nc(Nc4ccn(C5CCOCC5)c(=O)c4)ncc3[C@@]3(C)COC(C)(C)C[C@@H]23)n1` (single isomer, unassigned) [Example 386], the IC50 is below 10 nM against Wee1 kinase domain and 100 to 1000 nM in test [1].
The corresponding values for `CN(C)Cc1cccc(N2c3nc(Nc4ccn(C5CCOCC5)c(=O)c4)ncc3[C@@]3(C)COC(C)(C)C[C@@H]23)n1` (single isomer, unassigned) [Example 387] are below 10 nM and 1000 to 10000 nM.
For `CNCc1cccc(N2c3nc(Nc4ccn([C@@H]5CCOC5)c(=O)c4)ncc3[C@@]3(C)COC(C)(C)C[C@@H]23)n1` (single isomer, unassigned) [Example 388], the values for the 50% inhibitory concentration (IC50) (on Wee1 kinase domain; in test [1]) were below 10 nM and 100 to 1000 nM, respectively.
As to `CNCc1cccc(N2c3nc(Nc4ccn([C@H]5CCOC5)c(=O)c4)ncc3[C@@]3(C)COC(C)(C)C[C@@H]23)n1` (single isomer, unassigned) [Example 389], the results for the IC50 (at Wee1 kinase domain; in test [1]) were below 10 nM and 1000 to 10000 nM, respectively.
Turning to `CN[C@@H](C)c1cccc(N2c3nc(Nc4ccn(C5CCOCC5)c(=O)c4)ncc3[C@@]3(C)COC(C)(C)C[C@@H]23)n1` (single isomer, unassigned) [Example 390], the IC50 against Wee1 kinase domain is below 10 nM; in test [1], 100 to 1000 nM.
As for `CN[C@H](C)c1cccc(N2c3nc(Nc4ccn(C5CCOCC5)c(=O)c4)ncc3[C@@]3(C)COC(C)(C)C[C@@H]23)n1` (single isomer, unassigned) [Example 391], the values for the IC50 (at Wee1 kinase domain; in test [1]) were below 10 nM and 100 to 1000 nM, respectively.

(Values after patent publication US20260166039A1 (SCHRÖDINGER, INC., priority 2022, published 2026).)
